Measured values: US20210054047A1, “NOVEL ANTICANCER FUSION PROTEIN AND USE THEREOF” (KOREA INSTITUTE OF SCIENCE AND TECHNOLOGY, priority 2018, published 2021)

What was measured:
DR5 = biological target: T1, DR5 (Homo sapiens, UniProt O14763); test: SPR binding to immobilized DR5-Fc; settings: 25° C.
T1 construct: purchased R&D systems 631-T2-100
Method: Binding experiments of TTPN and mTRAIL to TRAIL receptors DR4 and DR5 were analyzed at 25° C. using a surface plasmon resonance apparatus (SR7500 DC, Reichert Inc., NY, USA). DR4 and DR5-fc chimeric proteins (R&D systems 347-DR-100, 631-T2-100) were immobilized on the surface of the Planar Protein A sensor chip (Reichert, 13206069) and the receptors were coated at a level of 300 to 500 resonance units. SPR kinetic titrations were performed by adding 250 μl of TTPN and mTRAIL with different concentrations in the range of 1.56 to 400 nM and 0.1 to 25.6 μM, respectively, increasing by four times. Each analyte was run at 50 μL/min using running and sample buffer (0.5 M Tris-HCl (pH 7.4), 150 mM NaCl, 0.005% Tween 20), and binding of the ligand to the receptor was performed and monitored in real time. For titration sensorgrams, a simple 1:1 Langmuir interaction model (A+B↔AB) was applied using the data analysis program Scrubber 2.0 (BioLogic Software, Australia, and KaleidaGraph Software, Australia) and CLAMP software.
The affinity KD was determined from the formula of KD=kd/ka. Results are based on representative sensorgrams obtained from saturation binding reactions averaged over at least three independent runs of SPR measurements (FIG. 31).

HEK293T cells = test: Cell viability, CCK-8 assay, HEK293T normal cells; format: cell-based; settings: HEK293T normal cells (FIG. 18)
Method: After culturing for 24 hours, cell viability was measured using a cell counting kit (CCK)-8 assay (Dojindo Molecular Technologies, Gaithersburg, Md.). The plate was then read with an absorbance microplate reader (Spectramax 340, Molecular Devices Corporation) at a wavelength of 450 nm and 50% effective by regression analysis using SigmaPlot software (Systat Software, Inc., San Jose, Calif.). The concentration value was calculated.

[1] = tested on: TRAIL receptors on the surface of HepG2 cells; test: Cell binding by flow cytometry; format: cell-based, human
Method: TRAIL receptor expression was evaluated on various cell surfaces. Specifically, HepG2, HT29, and HEK293T cells (2×10^5) were cultured with four types of anti-human TRAIL receptor antibodies (R&D system, MAB347, MAB6311, MAB6301, MAB633). […] Nanocage bound cells were detected with an Accuri™ C6 flow cytometer (BD Biosciences) and analyzed using FlowJo_V10 software (FlowJo). The binding specificity of TTPN to TRAIL receptor was analyzed by blocking experiments by pre-culture of anti-human TRAIL receptor antibodies and cells at 4° C. for 20 minutes. […] Thereafter, the cells were fixed with 4% paraformaldehyde and stained with Hoechst 33258 before analysis for cell binding detection in a fluorescence microscope (Nikon Eclipse Ti, Nikon). Data were analyzed using LAS AF Lite software (Leica).

HepG2 tumors = settings: mouse, in vivo, iv
Method: The delivery efficiency of TTPN to the tumor microenvironment was investigated by performing an in vivo biodistribution study (n=4 mice/group) of Cy5.5-labeled TTPN using the eXplore Optix System (Advanced Research Technologies Inc., USA). […] Free-Cy5.5 was separated by ultrafiltration (Amicon Ultra 100 K, Millipore), and the fluorescence intensity of the Cy5.5-labeled protein was measured using a fluorescence microplate reader (Infinite M200 Pro, TECAN, Austria). […] The fluorescence intensity of all samples was adjusted to the same value based on the data obtained using a fluorescence microplate reader. To analyze the fluorescence intensity of tumors, the Analysis Workstation software (Advanced Research Technologies Inc.) was used to calculate total photons per […] per steradian (p/s/cm^2/sr) in the region of interest (ROI). At 24 hours post-injection, the mice were sacrificed, and tumors and major organs including liver, lung, spleen, kidney and heart were excised and analyzed in the same manner as described above.

HepG2 tumor [2] = test: Antitumor efficacy, HepG2 xenograft; format: in vivo, mouse
Source text: (§1) In the evaluation of the anti-tumor effect of the present invention, BALB/c nude male mice (6-7 weeks old) were used as an animal model. Particularly, HT29 cells (5×10^6) and HepG2 cells (5×10^6) were subcutaneously inoculated into the left dorsal flank of BALB/c nude mice, respectively. After a volume of tumors reached ˜80-100 mm^3, mice were randomly divided into the 14 following five treatment groups (6 mice/group); DOX-TTPNs, DOX-FTNs, free DOX, empty TTPNs, and buffer. Mice were intravenously injected five times, once every 2 days, and volume of tumors was determined as 1/2(Length×Width^2). Apoptotic cell death in tumor tissues was analyzed using TUNEL staining (In situ Cell Death Detection kit; Roche), and cells were stained with DAPI (4′,6-diamidino-2-phenylindole), as previously described (Kih et al., Biomaterials 180: 67-77, 2018). Apoptotic cells were visualized under a Nikon Eclipse Ti microscope (Nikon) and quantified as the number of TUNEL-positive cells per total number of cells using ImageJ software. After 21 days from injecting tumor cells, tumor tissues were excised from the experimental mice, and cryo-sections (3.5 μm) were fixed with 10% neutral buffered formalin and paraffin-embedded tissue blocks.
(§2) In addition, to investigate whether tumor growth inhibition by TTPN is induced by apoptosis-inducing activity on tumor cells, tumor tissues from the treated mice were analyzed. On the 15th day after the first injection, mice were euthanized, and apoptosis of tumor tissues was analyzed using terminal deoxynucleotidyl transferase dUTP nick end labeling (TUNEL) staining.

HepG2 tumor [3] = test: TUNEL analysis of HepG2 tumor tissue; format: in vivo, mouse; settings: 15th day after first injection
Source text: as §1, with “After 21 days from injecting tumor cells, tumor tissues were excised from the experimental mice, and cryo-sections (3.5 μm) were fixed with 10% neutral buffered formalin and paraffin-embedded tissue blocks.” left out
as §2

[4] = tested on: cleaved form of caspase-3; test: Western blot of HT29 lysates: cleaved caspase-3; format: cell-based, human; settings: HT29, 50 nM, 24 hours
Method: After incubating HT29 cells with 50 nM DOX-TTPNs, DOX-FTNs, free DOX, or buffer for 24 hours, cells were lysed with radioimmunoprecipitation assay (RIPA) buffer (Cell Signaling Technology) and the concentration of proteins was measured using a DC protein assay kit (Bio-Rad). Equal amounts of proteins (30 μg) were resolved by SDS-PAGE and transferred to nitrocellulose membranes. After blocking with 5% skim milk in Tris-buffered saline containing 0.1% Tween-20 (TBST), membranes were incubated first with anti-Cl-PARP, anti-Cl-caspase-6, anti-cFLIP, anti-Bcl-xL, anti-XIAP, anti-Cl-caspase-3, or anti-GAPDH primary antibody (Cell Signaling Technology), and then with anti-mouse or anti-rabbit secondary antibodies (Sigma-Aldrich), as appropriate. Immunoreactive proteins were visualized using enhanced chemiluminescence (ECL) chemical reagents (Bio-Rad) and ChemiDoc (Bio-Rad), and were analyzed using ImageJ software.

T1 sequence (O14763 with tags, fused parts or gaps limits assumed): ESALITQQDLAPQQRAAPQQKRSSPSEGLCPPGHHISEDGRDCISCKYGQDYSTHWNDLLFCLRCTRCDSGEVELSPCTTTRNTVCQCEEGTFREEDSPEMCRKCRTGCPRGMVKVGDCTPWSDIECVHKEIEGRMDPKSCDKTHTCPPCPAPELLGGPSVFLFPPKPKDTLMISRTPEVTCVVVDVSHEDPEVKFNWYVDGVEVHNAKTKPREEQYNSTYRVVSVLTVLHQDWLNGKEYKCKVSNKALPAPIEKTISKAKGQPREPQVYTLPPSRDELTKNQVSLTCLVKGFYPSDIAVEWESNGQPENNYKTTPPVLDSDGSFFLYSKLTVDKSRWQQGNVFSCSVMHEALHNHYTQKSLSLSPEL

- ka (DR5): 6.62 (±4.19) · 10^4 M^−1 · S^−1
- kd (DR5): 1.49 (±1.13) · 10^−5 s^−1
Substance: TTPN: protein nanocage presenting TRAIL as natural-like homo-trimers; TRAIL 95-281 fused by linker peptide to human ferritin heavy chain
- apoptosis (HEK293T cells): low apoptosis rate
- binding on the surface of HepG2 cells ([1]; 400 nM, 4° C., 20 minutes): greater effect than wtFTN
- binding after pre-incubation with four anti-TRAIL receptor antibodies ([1]; HepG2, 400 nM): reduced
- fluorescence intensity of tumors (HepG2 tumors): higher than that of wtFTN and mTRAIL
- tumor volume inhibition relative to mTRAIL (HepG2 tumor [2]): 3.1 times
- inhibition of tumor volume (HepG2 tumor [2]; i.v. every 2 days, TTPN 23 mg/kg, mTRAIL 12 mg/kg): 80.52%
- TUNEL-positive tumor cells (HepG2 tumor [3]): 84.4%
- cleaved caspase-3 (and PARP) expression [4]: little change
